In ChEMBL document CHEMBL3351724, “Human α1-adrenoceptor subtype selectivity of substituted homobivalent 4-aminoquinolines” (Bioorg Med Chem, 2014):

Columns and labels:
[1] = biological target: T1, Alpha-1D adrenergic receptor (Homo sapiens, UniProt P25100); assay: Displacement of [3H]-prazosin from human alpha1D adrenergic receptor transfected in COS1 cells; type: cell-based, COS-1
T1 sequence (P25100 whole entry): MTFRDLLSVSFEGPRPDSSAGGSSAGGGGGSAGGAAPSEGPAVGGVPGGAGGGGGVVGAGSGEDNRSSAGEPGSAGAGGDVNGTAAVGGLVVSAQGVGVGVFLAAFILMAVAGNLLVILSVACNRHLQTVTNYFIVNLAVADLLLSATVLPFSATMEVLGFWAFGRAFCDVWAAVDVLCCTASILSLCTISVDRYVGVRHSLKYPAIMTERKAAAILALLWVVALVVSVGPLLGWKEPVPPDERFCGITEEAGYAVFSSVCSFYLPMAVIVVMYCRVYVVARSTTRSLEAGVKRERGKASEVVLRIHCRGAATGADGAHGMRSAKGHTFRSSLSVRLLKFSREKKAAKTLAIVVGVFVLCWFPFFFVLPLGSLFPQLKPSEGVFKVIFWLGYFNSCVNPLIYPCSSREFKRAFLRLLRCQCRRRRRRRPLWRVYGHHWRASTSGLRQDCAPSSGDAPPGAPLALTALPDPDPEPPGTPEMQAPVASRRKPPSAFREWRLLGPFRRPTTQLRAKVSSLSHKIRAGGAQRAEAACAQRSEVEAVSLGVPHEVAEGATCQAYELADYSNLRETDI

[2] = biological target: T2, 5-hydroxytryptamine receptor 1A (Homo sapiens, UniProt P08908); assay: Displacement of [3H]8-OH-DPAT from human 5HT1A receptor transfected in COS1 cells; type: cell-based, COS-1
T2 sequence (P08908 whole entry): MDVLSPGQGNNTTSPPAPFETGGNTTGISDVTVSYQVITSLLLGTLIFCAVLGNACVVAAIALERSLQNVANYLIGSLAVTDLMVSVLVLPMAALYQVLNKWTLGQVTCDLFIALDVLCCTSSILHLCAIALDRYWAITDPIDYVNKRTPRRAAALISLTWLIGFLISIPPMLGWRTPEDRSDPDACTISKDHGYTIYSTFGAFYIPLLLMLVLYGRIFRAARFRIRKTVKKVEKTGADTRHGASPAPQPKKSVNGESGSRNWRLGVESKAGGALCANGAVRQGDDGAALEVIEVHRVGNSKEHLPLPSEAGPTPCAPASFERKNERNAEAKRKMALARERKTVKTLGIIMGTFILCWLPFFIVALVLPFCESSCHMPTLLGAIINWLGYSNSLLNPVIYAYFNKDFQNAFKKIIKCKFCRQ

[3] = biological target: T3, Alpha-1A adrenergic receptor (Homo sapiens, UniProt P35348); assay: Binding affinity to human alpha1A adrenergic receptor transfected in COS1 cells assessed as compound required to occupy 50% of receptor; type: cell-based, COS-1
T3 sequence (P35348 whole entry): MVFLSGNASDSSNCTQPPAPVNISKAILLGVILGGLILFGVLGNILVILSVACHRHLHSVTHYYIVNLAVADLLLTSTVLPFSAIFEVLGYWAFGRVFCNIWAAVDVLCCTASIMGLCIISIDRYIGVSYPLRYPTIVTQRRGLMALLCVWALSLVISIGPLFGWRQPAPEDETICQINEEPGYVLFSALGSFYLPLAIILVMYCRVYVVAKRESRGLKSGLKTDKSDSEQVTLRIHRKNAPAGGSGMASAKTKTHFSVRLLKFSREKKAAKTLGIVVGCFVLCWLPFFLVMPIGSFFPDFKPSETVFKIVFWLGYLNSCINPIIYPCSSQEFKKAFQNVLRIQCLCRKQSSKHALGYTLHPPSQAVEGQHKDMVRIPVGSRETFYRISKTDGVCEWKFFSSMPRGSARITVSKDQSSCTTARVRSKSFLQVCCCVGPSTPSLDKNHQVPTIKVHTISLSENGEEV

[4] = biological target: T2, 5-hydroxytryptamine receptor 1A; assay: Binding affinity to human 5HT1A receptor transfected in COS1 cells assessed as compound required to occupy 50% of receptor; type: cell-based, COS-1
[5] = biological target: T4, Alpha-1B adrenergic receptor (Homo sapiens, UniProt P35368); assay: Displacement of [3H]-prazosin from human alpha1B adrenergic receptor transfected in COS1 cells; type: cell-based, COS-1
T4 sequence (P35368 whole entry): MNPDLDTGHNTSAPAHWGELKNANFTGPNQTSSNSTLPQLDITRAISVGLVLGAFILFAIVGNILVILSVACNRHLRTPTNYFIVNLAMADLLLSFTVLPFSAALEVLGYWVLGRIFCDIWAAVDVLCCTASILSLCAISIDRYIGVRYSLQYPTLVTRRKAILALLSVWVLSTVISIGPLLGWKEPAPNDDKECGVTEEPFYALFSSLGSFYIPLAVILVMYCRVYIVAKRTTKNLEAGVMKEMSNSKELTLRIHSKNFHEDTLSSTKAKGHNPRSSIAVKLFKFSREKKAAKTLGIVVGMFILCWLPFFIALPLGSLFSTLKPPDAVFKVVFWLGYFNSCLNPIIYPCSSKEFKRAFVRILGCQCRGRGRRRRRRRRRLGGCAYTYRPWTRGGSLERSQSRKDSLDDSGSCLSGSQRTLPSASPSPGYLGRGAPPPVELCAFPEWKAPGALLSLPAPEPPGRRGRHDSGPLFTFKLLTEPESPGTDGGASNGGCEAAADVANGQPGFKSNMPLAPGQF

[6] = biological target: T3, Alpha-1A adrenergic receptor; assay: Displacement of [3H]-prazosin from human alpha1A adrenergic receptor transfected in COS1 cells; type: cell-based, COS-1
[7] = biological target: T4, Alpha-1B adrenergic receptor; assay: Binding affinity to human alpha1B adrenergic receptor transfected in COS1 cells assessed as compound required to occupy 50% of receptor; type: cell-based, COS-1
[8] = biological target: T1, Alpha-1D adrenergic receptor; assay: Binding affinity to human alpha1D adrenergic receptor transfected in COS1 cells assessed as compound required to occupy 50% of receptor; type: cell-based, COS-1
Homo sapiens [9] = species: Homo sapiens; assay: Selectivity ratio of Ki for human alpha1D adrenergic receptor to Ki for human alpha1A adrenergic receptor
Homo sapiens [10] = species: Homo sapiens; assay: Selectivity ratio of Ki for human alpha1B adrenergic receptor to Ki for human alpha1A adrenergic receptor
Homo sapiens [11] = species: Homo sapiens; assay: Selectivity ratio of Ki for human 5HT1A receptor to Ki for human alpha1A adrenergic receptor

| SMILES | Ki [1] | Ki [2] | Ki [3] | Ki [4] | Ki [5] | Ki [6] | Ki [7] | Ki [8] | Ratio Ki (Homo sapiens [9]) | Ratio Ki (Homo sapiens [10]) | Ratio Ki (Homo sapiens [11]) |
| --- | --- | --- | --- | --- | --- | --- | --- | --- | --- | --- | --- |
| Cc1cccc2c(NCCNc3ccnc4c(C)cccc34)ccnc12 | 479 nM | 1170 nM | 7 nM | 1170 nM | 39.8 nM | 7.41 nM | 40 nM | 479 nM | 68 | 6 | 168 |
| Cc1ccc2nccc(NCCNc3ccnc4ccc(C)cc34)c2c1 | 490 nM | 617 nM | 135 nM | 617 nM | 19.1 nM | 135 nM | 19 nM | 490 nM |  |  |  |
| COc1cccc2c(NCCNc3ccnc4c(OC)cccc34)ccnc12 | 2000 nM | 3090 nM | 195 nM | 3090 nM | 324 nM | 195 nM | 324 nM | 2000 nM |  |  |  |
| Cc1ccc2c(NCCCCCCCNc3ccnc4cc(C)ccc34)ccnc2c1 | 490 nM | 1260 nM | 112 nM | 1260 nM | 51.3 nM | 112 nM | 51 nM | 490 nM |  |  |  |
| COc1ccc2nccc(NCCCCCCCNc3ccnc4ccc(OC)cc34)c2c1 | 372 nM | 1380 nM | 316 nM | 1380 nM | 148 nM | 316 nM | 148 nM | 372 nM |  |  |  |
| Cc1ccc2nccc(NCCCCCCCNc3ccnc4ccc(C)cc34)c2c1 | 479 nM | 1100 nM | 617 nM | 1100 nM | 151 nM | 617 nM | 151 nM | 479 nM |  |  |  |
| COc1cccc2c(NCCCCCCCNc3ccnc4c(OC)cccc34)ccnc12 | 759 nM | 603 nM | 74 nM | 603 nM | 155 nM | 74.1 nM | 155 nM | 759 nM |  |  |  |

Stronger by Ki [1], values ahead:

| Ki [1] | Ki [2] | Ki [3] | Ki [4] | Ki [5] | Ki [6] | Ki [7] | Ki [8] | Ratio Ki (Homo sapiens [9]) | Ratio Ki (Homo sapiens [10]) | Ratio Ki (Homo sapiens [11]) | SMILES |
| --- | --- | --- | --- | --- | --- | --- | --- | --- | --- | --- | --- |
| 229 nM | 2820 nM | 257 nM | 2820 nM | 34.7 nM | 257 nM | 35 nM | 229 nM |  |  |  | COc1ccc2c(NCCCCCCCNc3ccnc4cc(OC)ccc34)ccnc2c1 |
| 214 nM | 891 nM | 69 nM | 891 nM | 50.1 nM | 69.2 nM | 50 nM | 214 nM |  |  |  | COc1ccc2c(NCCNc3ccnc4cc(OC)ccc34)ccnc2c1 |
| 204 nM | 3470 nM | 120 nM | 3470 nM | 47.9 nM | 120 nM | 48 nM | 204 nM |  |  |  | Cc1ccc2c(NCCNc3ccnc4cc(C)ccc34)ccnc2c1 |
| 309 nM | 832 nM | 126 nM | 832 nM | 148 nM | 126 nM | 148 nM | 309 nM |  |  |  | c1ccc2c(NCCCCCCCNc3ccnc4ccccc34)ccnc2c1 |
| 331 nM | 2290 nM | 26 nM | 2290 nM | 28.2 nM | 26.3 nM | 28 nM | 331 nM |  |  |  | c1ccc2c(NCCNc3ccnc4ccccc34)ccnc2c1 |
